Measured values from ChEMBL document CHEMBL1201862, “PubChem BioAssay data set” (2004).
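All cell lines were grown in 96-well plates and treated with compound for 48 hours. GI50 = concentration required for 50% inhibition of growth.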 Active and inactive are the calls of the source. No stated cut-off is given here; in the data, active = GI50 up to about 1.1 µM and inactive = higher.

Experiments:
Experiment in all cases: growth of human tumour cells (NCI), 48 h
IGROV-1 = test system: IGROV-1
NCI-H522 = test system: NCI-H522
NCI-H226 = test system: NCI-H226
NCI-H23 = test system: NCI-H23
XF498 = test system: XF498
OVCAR-3 = test system: OVCAR-3
Malme-3M = test system: Malme-3M
NCI-H460 = test system: NCI-H460
K562 = test system: K562
SNB-75 = test system: SNB-75
EKVX = test system: EKVX
HT-29 = test system: HT-29
SK-MEL-5 = test system: SK-MEL-5
M19-MEL = test system: M19-MEL
UACC-257 = test system: UACC-257
COLO 205 = test system: COLO 205
U-251 = test system: U-251
HCT-15 = test system: HCT-15
CCRF-CEM = test system: CCRF-CEM
SNB-19 = test system: SNB-19

Measured: GI50

CC(C)Cc1ccc(C(C)C(=O)N2CCN(/C=C/c3ccccc3)CC2)cc1 (stereo unspecified)
13.8 µM: HCT-15
inactive: IGROV-1 15.1 µM | NCI-H522 11.6 µM | NCI-H226 12.6 µM | NCI-H23 13.2 µM | XF498 13.8 µM | OVCAR-3 12.9 µM | Malme-3M 16.3 µM | NCI-H460 16.1 µM | K562 5.58 µM | SNB-75 14 µM | EKVX 15.8 µM | HT-29 14.7 µM | SK-MEL-5 12.1 µM | M19-MEL 15.7 µM | UACC-257 17.3 µM | COLO 205 15.4 µM | U-251 12.9 µM | CCRF-CEM 13 µM | SNB-19 2.79 µM

O=C(O)C(Cl)(Cl)Cl
inactive: IGROV-1 > 100 µM | NCI-H226 > 100 µM | NCI-H23 > 100 µM | XF498 > 100 µM | Malme-3M > 100 µM | NCI-H460 > 100 µM | K562 > 100 µM | SNB-75 63.1 µM | EKVX > 100 µM | SK-MEL-5 > 100 µM | M19-MEL > 100 µM | UACC-257 > 100 µM | COLO 205 > 100 µM | U-251 > 100 µM | CCRF-CEM > 100 µM | SNB-19 > 100 µM
> 100 µM: HCT-15

CCOc1ccc(C2=C(Cl)c3cc(OC)c(OC)cc3C2Cl)cc1 (stereo unspecified)
inactive: IGROV-1 72.4 µM | NCI-H522 17.2 µM | NCI-H226 30.8 µM | NCI-H23 44.4 µM | XF498 19.6 µM | OVCAR-3 59 µM | Malme-3M 33.8 µM | NCI-H460 29.3 µM | K562 > 10 µM | SNB-75 44.1 µM | EKVX 66.7 µM | HT-29 32.1 µM | SK-MEL-5 18.3 µM | M19-MEL 45.2 µM | COLO 205 63.5 µM | U-251 18.2 µM | CCRF-CEM 25.2 µM | SNB-19 > 100 µM
27.1 µM: HCT-15

CC(C)(O)/C1=C/C=C/CCCCCCCCCC1
inactive: IGROV-1 > 100 µM | NCI-H522 95.9 µM | NCI-H226 > 100 µM | NCI-H23 > 100 µM | OVCAR-3 > 100 µM | Malme-3M > 100 µM | NCI-H460 > 100 µM | K562 37.8 µM | EKVX > 100 µM | HT-29 > 100 µM | UACC-257 > 100 µM | COLO 205 > 100 µM | U-251 > 100 µM | CCRF-CEM 30.3 µM | SNB-19 > 100 µM
active: SNB-75 0.387 µM | SK-MEL-5 0.246 µM
> 100 µM: HCT-15

CC(C)(C)OC(=O)NCCc1ccc(N)cc1
> 100 µM: HCT-15
inactive: IGROV-1 > 100 µM | NCI-H522 > 100 µM | OVCAR-3 19.9 µM | Malme-3M > 100 µM | NCI-H460 > 100 µM | K562 66.5 µM | EKVX > 100 µM | HT-29 > 100 µM | SK-MEL-5 33 µM | UACC-257 72.8 µM | COLO 205 > 100 µM | U-251 30.8 µM | CCRF-CEM > 100 µM | SNB-19 > 100 µM

COC(=O)c1ccc(/N=N/N(C)COc2ccc(Br)cc2)cc1
inactive: IGROV-1 > 100 µM | NCI-H522 43.5 µM | NCI-H226 > 100 µM | NCI-H23 > 68.5 µM | XF498 > 100 µM | OVCAR-3 > 100 µM | Malme-3M > 100 µM | NCI-H460 40.6 µM | K562 38.1 µM | SNB-75 57.3 µM | EKVX > 75.2 µM | HT-29 49.3 µM | SK-MEL-5 55.3 µM | M19-MEL > 100 µM | UACC-257 > 71.8 µM | COLO 205 > 100 µM | U-251 > 71.3 µM | CCRF-CEM 34 µM | SNB-19 > 100 µM
> 89.7 µM: HCT-15

CC12CCC(C(=O)N3CC=CCC3)(OC1=O)C2(C)C (stereo unspecified)
> 100 µM: HCT-15
inactive: IGROV-1 > 100 µM | NCI-H522 > 100 µM | NCI-H226 > 100 µM | NCI-H23 > 100 µM | XF498 > 100 µM | OVCAR-3 > 100 µM | Malme-3M > 100 µM | NCI-H460 > 100 µM | K562 > 100 µM | SNB-75 > 100 µM | EKVX > 100 µM | HT-29 > 100 µM | SK-MEL-5 > 100 µM | M19-MEL > 100 µM | UACC-257 > 100 µM | COLO 205 > 100 µM | U-251 > 100 µM | CCRF-CEM > 82.8 µM | SNB-19 > 100 µM

CCCC(=O)OCC1OC(n2ccc(N)nc2=O)C(OC(=O)CCC)C1OC(=O)CCC (stereo unspecified)
72.4 µM: HCT-15
inactive: IGROV-1 > 63 µM | NCI-H522 10.6 µM | NCI-H226 88.5 µM | NCI-H23 5.01 µM | OVCAR-3 > 100 µM | Malme-3M > 21.2 µM | NCI-H460 2.74 µM | K562 > 100 µM | SNB-75 > 48.9 µM | EKVX 2.25 µM | HT-29 99.3 µM | SK-MEL-5 > 86.5 µM | M19-MEL 43.2 µM | UACC-257 > 31.7 µM | COLO 205 > 100 µM | U-251 35 µM | SNB-19 24.8 µM
active: CCRF-CEM 0.203 µM

CC(C)Cc1cccc(C(C)C)c1NC(=O)CCC(=O)N/N=C1\C(=N/NC(=O)CCC(=O)Nc2c(C(C)C)cccc2C(C)C)C(c2ccc3c(c2)OCO3)Oc2ccccc21 (stereo unspecified)
17.1 µM: HCT-15
inactive: IGROV-1 29.5 µM | NCI-H522 19.5 µM | NCI-H226 > 100 µM | NCI-H23 > 100 µM | XF498 > 100 µM | NCI-H460 27.9 µM | K562 25 µM | SNB-75 49.2 µM | EKVX 9.64 µM | HT-29 43.8 µM | SK-MEL-5 > 100 µM | M19-MEL > 100 µM | UACC-257 > 100 µM | COLO 205 > 100 µM | U-251 35 µM | CCRF-CEM 28.8 µM | SNB-19 91 µM
